From US20090136470A1, “REGULATORY T CELLS AND METHODS OF MAKING AND USING SAME” (priority 2007, published 2009)

How the values were obtained:
RAR = conditions: cited from earlier work
CD8^+ spleen T cells = assay: IL-17^+ cell generation from CD8^+ T cells activated with TGF-β and IL-6
RORγt = RORγt mRNA by real-time PCR in CD4 T cells under Th-17 culture conditions; format: cell-based, mouse; conditions: α-CD3ε and α-CD28, IL-17 inducing cytokines
Excerpt: For analysis of RORγ-T mRNA expression, naïve CD4^+T cells were purified essentially as described by Ivanov et al. [Ivanov, II et al., Cell 126, 1121 (2006)]. In brief, CD4+ T cells were purified from spleens of C57BL/6 mice using anti-CD4 magnetic microbeads (Miltenyi Biotec) and MACS columns. CD4^+T cells were stained with anti-CD25-PE, anti-CD4-PECy5, anti-CD62L-FITC, and anti-CD44-APC. The CD4^+CD25^− CD44^lowCD62L^+ T cells population was sorted by flow cytometry using a FACS-DIVA cell sorter (>99% purity). Some studies were also performed using CD4^+CD45RB^high T cell population, sorted as described above.
At different time-points, cells were harvested, washed with sterile PBS and resuspended in TRIZol (Invitrogen, USA). Samples were then frozen and kept at −80° C. for later utilization. For RNA isolation, the whole tissue was homogenized and RNA was separated from DNA and proteins by precipitation with chloroform and extraction with isopropanol. The cDNA was synthesized from the total RNA using the Superscript II system (Invitrogen, USA) following the instructions provided by the manufacturer. […] Data were collected and analyzed on an iCycler Bio-Rad (Hercules, USA).

[1] = tested on: CD4^+T cells from small intestine lamina propria and spleen; assay: Oral Listeria monocytogenes infection (and naïve mice) treated with RA or LE540: IL-17^+ and Foxp3^+ CD4 T cells; format: in vivo, mouse
Excerpt: Listeria monocytogenes (strain WT LMOVA) was used. Mice were orally infected (gavage) with 5×10^8 CFU of L. monocytogenes. Mice received i.p. injections of vehicle, RA or LE540 on the same day and 2 days after infection. Mice were sacrificed 5 days post-infection for analysis.
Every second day, in a interval of two weeks, naïve mice received gavage of either vehicle, RA or LE540.
Liver lymphocytes were isolated using 37.5% isotonic Percoll (GE Healthcare, USA), as previously described [Y. Kinjo et al, Nat Immunol 7, 978 (2006)]. Intestinal lymphocytes were isolated and prepared as previously described [Aranda et al., J Immunol 158, 3464 (1997)]. Briefly, small and large intestines were removed and placed in chilled HBSS media containing 5% FCS. The intestines were carefully cleaned from the mesentery and flushed of fecal content. Intestines were opened longitudinally and then cut into 1 cm pieces. The intestinal tissue was transferred to a 250-ml Erlenmeyer flasks containing 25 ml of preheated HBSS complemented with 2% FCS and 1 mM DTT (Sigma, USA) and shaken at 200 rpm for 40 min at 37° C. The tissue suspension was passed through a stainless steel sieve into 50-ml conical tubes and the cells were pelleted by centrifugation at 1200 rpm for 10 min at 4° C. The cell pellet was resuspended in complete HBSS, layered over a discontinuous 40/70% Percoll gradient, and centrifuged at 2000 rpm for 30 min. Cells from the 40/70% interface were collected, washed and resuspended in complete RPMI media. These purified cells constituted the intraepithelial lymphocyte (IEL) population. To isolate the lamina propria lymphocytes (LPL), the remaining intestinal tissue in the stainless steel sieve was minced and transferred to conical tubes. The minced pieces were resuspended in 20 ml of complete RPMI containing 1 mg/ml of collagenase (Sigma, USA) and shaken at 200 rpm for 40 min at 37° C. The tissue suspension was collected and passed through a 70 μm cell strainer and the cells were pelleted by centrifugation at 1200 rpm. The cells were then resuspended and layered onto a 40/70% Percoll gradient, centrifugated and processed as described above for the IEL preparation.
(§1) To block non-specific staining, the 2.4G2 anti-CD16/32 antibody was added. […] For intracellular cytokine staining, cells obtained from in vitro cultures or isolated IELs were incubated for 4-5 hours with 50 ng/ml PMA, 750 ng/ml Ionomycin (both Sigma, USA) and 10 μg/ml Brefeldin A (Invitrogen, USA) in a tissue culture incubator at 37° C.
For Foxp3 staining, no stimulation with PMA/Ionomycin was performed, with the exceptions of FIGS. 8B and 9A. In these cases, the time of incubation with PMA/Ion was reduced to 3.5 hours. Intracellular Foxp3 staining was performed as per the eBioscience's Foxp3-staining kit protocol.

[2] = tested on: Polyclonal CD4^+CD25^− spleen T cells; assay: APC-free Th-17 generation (anti-CD3/CD28 beads, IL-17 cond.: TGF-β, IL-6, IL-1β, TNF-α); format: cell-based, mouse
Procedure: (§2) The culture medium used for dendritic cell-T cell cultures was Iscove's modified Dulbecco medium (IMDM) (Gibco, USA) supplemented with 10% heat-inactivated FCS, 2 mM L-glutamine, 100 U/ml penicillin, 100 μg/ml streptomycin, and 5 mM β-mercaptoethanol (all Sigma, USA). […] For dendritic cell-T cell cultures, 2×10^4 dendritic cells and 1×10^5 T cells were cultured in a volume of 200 μl (96-well plates). For irradiated APC-T cell cultures, 5×10^5 APCs and 1×10^5 T cells were cultured in a volume of 200 μl in 96-well plates (2×10^6 APCs and 0.5×10^6 T cells per well in 48-well plates). […] For the study shown in FIG. 4A, after sorting of naive CD4^+ cells (CD25^−CD44^lowCD62L^+), cells were washed twice in PBS+0.1% BSA, counted and labeled with 2 μM of CFSE (Carboxyfluorescein diacetate, succinimidyl ester) (Molecular Probes, USA) at a concentration of 5−10×10^6 cells per ml in PBS-0.1% BSA.
as §1

naïve CD4^+T cells = assay: Re-stimulation (secondary cultures) of in vitro differentiated CD4 T cells: Foxp3 and IL-17 staining; format: cell-based, mouse; conditions: cells first stimulated with TGF-β and IL-6, rested
Procedure: as §2, §1
For Foxp3 staining, no stimulation with PMA/Ionomycin was performed, with the exceptions of FIGS. 8B and 9A. […]

CC1=C(/C=C/C(C)=C/C=C/C(C)=C/C(=O)O)C(C)(C)CCC1 [RA, All-trans retinoic acid]
binding to RAR-RAR homodimers and RAR-RXR heterodimers (RAR): can bind | generation of IL-17^+ T cells from cytotoxic CD8^+ T lymphocytes (CD8^+ spleen T cells; WT or OT-I TCR^+ CD8^+ T cells, TGF-β and IL-6): again able to inhibit this | Foxp3 / Th-17 differentiation of CD8 T cells under conditions that promote Th-17 differentiation (CD8^+ spleen T cells; cultured with RA): converted to Foxp3^+ cells with a decrease in Th-17 differentiation | RORγt mRNA expression (RORγt): greatly reduced its expression | Th-17 mucosal T cells (IL-17 staining of CD4^+T cells, small intestine lamina propria) ([1]; 5 days after oral L. monocytogenes infection, i.p. days 0 and 2, RA 300 μg/mouse, LE540 100 μg/mouse): measurable reduction | differentiation / number of mucosal Foxp3^+Treg cells (small intestine lamina propria) ([1]; Lm challenged mice, 5 days after oral infection): not found to measurably enhance | spleen Foxp3^+CD4 cells ([1]; Lm infected mice (2 i.p. injections) and naïve mice (2-week gavage)): No effect | generation of IL-17^+ T cells under APC-free conditions [2]: also inhibited the generation of IL-17^+T cells | committed Th-17 cells in secondary cultures (naïve CD4^+T cells): also suppressed committed Th-17 cells
